PubChem BioAssay AID2305 (GlaxoSmithKline (GSK), 2010)
“And” between values parts separate entries of the source, which are not always exact repeats. Equal values may be shown once.

What follows are molecules tested on P. falciparum 3D7 growth, pLDH absorbance (assay: P. falciparum 3D7 growth inhibition, dose response, strain 3D7 (AID 2305)).
For `CON=Cc1ccn(-c2ccc(O)c3c2C[C@H]2C[C@H]4[C@H](N(C)C)C(=O)C(C(N)=O)=C(O)[C@@]4(O)C(=O)C2=C3O)c1`, the IC50 was 770 nM. `CCCCCCCN1CCC(CCNc2ccnc3ccc(OC)cc23)CC1` was tested, and the IC50 was 950 nM. For `CCN(C(=O)c1ccc(NC(=O)c2cccs2)cc1)c1nc2c(C)cccc2s1`, the IC50 was 850 nM. `O=C(Nc1ccc(-c2nc3cc4ccccc4cc3[nH]2)cc1)c1cccc(Br)c1` was tested, and the IC50 was 360 nM. In the case of `CN(C(=O)Cc1ccc(Cl)cc1)C1CCN(CCCCCNC(=O)/C=C/c2ccc(Cl)c(Cl)c2)CC1`, the IC50 is reported as 720 nM. In the case of `NC1=NC(c2ccccc2)(c2cccc(O)c2)C(=O)N1CCCc1ccccc1` (configuration not stated), the IC50 is reported as 1230 nM and 840 nM. With `C=Cc1ccccc1C1(O)CCN(CCCCNC(=O)c2ccc(-c3ccc(C#N)cc3)cc2)CC1` the IC50 was 520 nM. `C[C@@H](CC1CCCCC1)OC(=O)N(C)[C@H]1CCN(C#N)C1` gave an IC50 of 220 nM. `COc1ccccc1N1CCN(C(C(=O)NCc2cccc(F)c2)c2ccc(C)cc2)CC1` (configuration not stated) was tested, and the IC50 was 890 nM. `Cc1cc(N[C@@H](CC(C)C)C(=O)NCCc2ccccc2)nc(NCCc2cccs2)n1` showed an IC50 of 1200 nM. With `CCN(CC)CCN(Cc1ccc(-c2ccc(C(F)(F)F)cc2)cc1)C(=O)Cn1c(CCc2c(F)cccc2F)nc(=O)c2ccccc21` the IC50 was 640 nM. For `CN1CC=C(C=Cc2c[nH]c3ccccc23)CC1`, the IC50 was 1340 nM. For `CCCC(CNCc1cccc(OC(F)(F)C(F)F)c1)CNc1cc(=O)c2ccccc2[nH]1` (configuration not stated), the IC50 was 590 nM. `O=C(COC(=O)c1cccc(S(=O)(=O)N2CCc3ccccc32)c1)NNC(=O)c1cccs1` showed an IC50 of 1250 nM. `CN1CCN(c2ccnc3ccc(NC(=O)Cc4ccc(Br)c5ccccc45)cc23)CC1` gave an IC50 of 810 nM. With `O=C(Nc1ccccc1)N(Cc1ccccc1-c1cccc(CNC2CCCC2)c1)C1CCN(Cc2ccccc2)CC1` the IC50 was 170 nM. Work on `Cc1sc2nc(CSc3ccccc3)nc(N3CCN(CC(=O)NC4CC4)CC3)c2c1C` yielded an IC50 of 460 nM. `CCN(CC)CCNc1ccnc2c3ccccc3n(C)c12` gave an IC50 of 240 nM. With `CCn1c(C2CCN(CCC3CCN(C(=O)/C=C/c4ccc(Cl)c(Cl)c4)CC3)CC2)nc2ccccc21` the IC50 was 1080 nM. `CNC(=O)c1cnc(Nc2ccc(OCC(O)CN(C)C)cc2)nc1Nc1cccc(OC(C)C)c1` (configuration not stated) gave an IC50 of 140 nM. In the case of `CC(C)Cc1cnc2nc(N)nc(N)c2c1`, the IC50 is reported as 490 nM. Molecule `CC(=O)c1c(C)[nH]c(C(=O)Nc2ccc(-c3nc4ccc(C)cc4s3)cc2)c1C` has an IC50 of 840 nM. `Cc1cc(Nc2ccccc2)nc(Nc2ccccc2)n1` gave an IC50 of 800 nM. Molecule `C(=Cc1nc2ccccc2s1)c1ccc2c(c1)OCCO2` has an IC50 of 390 nM. `COc1ccc(-c2cncc3ccc(C(=O)NCc4ccncc4)nc23)cc1` showed an IC50 of 740 nM. Work on `CC(C)(C)c1nn(-c2ccccc2)c2[nH]c(=O)c(CNCCc3ccccc3)cc12` yielded an IC50 of 870 nM. `COc1ccc2nc(C)cc(NN=Cc3ccc(Cl)cc3)c2c1` was tested, and the IC50 was 230 nM. Work on `NC1CCN(CCc2ccc(NS(=O)(=O)c3cccc4ccccc34)cc2)CC1` yielded an IC50 of 1700 nM. `CC(C)(C)c1ccc(CNCCOc2ccc(Nc3nnc(-c4ccc(-c5ncc[nH]5)cc4)o3)c3ccccc23)cc1` was tested, and the IC50 was 140 nM. `Nc1ccc(-c2ccc3ccnc(N)c3c2)cc1` was tested, and the IC50 was 680 nM. With `CN(C)CCCNc1c2ccccc2nc2ccccc12` the IC50 was 1040 nM. With `O=C(NC1CCN(c2ccc(F)cc2[N+](=O)[O-])CC1)c1cccs1` the IC50 was 670 nM. In the case of `Cc1ccc(Cn2cnc(N3CC(C)NC(C)C3)cc2=O)cc1NC(=O)Nc1ccc(-c2ccccc2)cc1` (configuration not stated), the IC50 is reported as 850 nM. Work on `COCCNCc1ncsc1-c1ccc2c(Nc3ccc(Oc4ccccc4)cc3)ccnc2c1` yielded an IC50 of 900 nM. In the case of `Cc1[nH]c(C)c(-c2ccc(-c3ccc(C(F)F)cc3)nc2)c(=O)c1Cl`, the IC50 is reported as 240 nM. `O=C(CCCCCNC(=O)c1ccc(O)c(-c2ccc(Cl)c(Cl)c2)c1)NCCN1CCCCC1` gave an IC50 of 890 nM. `O=C(CCc1cccnc1)Nc1ccc(-c2cccc(-c3nc4ccc(F)cc4[nH]3)c2)cc1` gave an IC50 of 920 nM. For `O=C(CNC(=O)c1ccc(O)cc1)Nc1cccc(-c2cccc(-c3nc4ccc(C(F)(F)F)cc4[nH]3)c2)c1`, the IC50 was 1040 nM. In the case of `CCOC(=O)c1ccc(NC(=O)NCCCC2CCCN(CCCCCNC(=O)/C=C/c3ccc(Cl)c(Cl)c3)C2)cc1` (configuration not stated), the IC50 is reported as 860 nM. In the case of `Cc1cc(-c2ccc3c(c2)CCN(CCC2CCC(NC(=O)/C=C/c4cccc(F)c4)CC2)CC3)on1` (configuration not stated), the IC50 is reported as 750 nM. In the case of `CCN1CCN(CCCNc2ccnc3cc(Cl)ccc23)CC1`, the IC50 is reported as 70 nM. `Cc1ccc(/C=C/C(=O)NCCCCCN2CCCN(C(=O)Nc3ccc(Cl)c(Cl)c3)CC2)cc1` was tested, and the IC50 was 940 nM. Molecule `Cc1ccc2c(NN=Cc3ccccc3[N+](=O)[O-])cc(C)nc2c1` has an IC50 of 420 nM. In the case of `CS(=O)(=O)Nc1cccc(-c2cnc3[nH]cc(-c4cccc(CN)c4)c3c2)c1`, the IC50 is reported as 1660 nM. With `O=C(Nc1cccc(C(F)(F)F)c1)c1cccc(S(=O)(=O)NC2CCN(CC3CCCCC3)C2)c1` (configuration not stated) the IC50 was 590 nM. Molecule `CCc1ccccc1-c1csc(C(=O)NCC2CCN(Cc3ccc(C(C)(C)C)cc3)C2)c1` (configuration not stated) has an IC50 of 1150 nM. Molecule `O=C(NCc1ccc(C(=O)NCc2cccc3ccccc23)cc1)c1ccc(O)c(-c2ccc(Cl)c(Cl)c2)c1` has an IC50 of 810 nM. `O=C(CCNc1ccnc(NCCc2ccc(F)cc2)n1)Nc1ccccc1` was tested, and the IC50 was 830 nM. Molecule `CN1CCN(c2ccnc3ccc(NC(=O)Nc4cccc(C#N)c4)cc23)CC1` has an IC50 of 800 nM. For `COc1ccccc1-c1sccc1C(=O)NC1(c2cc(Cl)cc(Cl)c2)CCCC1`, the IC50 was 940 nM. `CC(C)COc1ccc(Cl)cc1Cc1nc(-c2nc3ccc(CN4CCCCC4)cc3[nH]2)co1` showed an IC50 of 740 nM. With `O=[N+]([O-])c1ccc(Nc2nc(NN=Cc3cc(Cl)cc(Cl)c3O)nc(Nc3ccccc3)n2)cc1` the IC50 was 670 nM. `COc1cc2c(Nc3ccc(NC(=O)c4ccccc4)cc3)ncnc2cc1OCCCN1CCOCC1` gave an IC50 of 650 nM. `Cc1cc(C2CCN(CCCCNC(=O)c3ccc(NC(=O)c4ccc(Cl)cc4)cc3)CC2)c(C)cc1OCc1cccnc1` showed an IC50 of 600 nM. `COc1ccc2nccc([C@@H](O)CN3CCC(NCc4cc5ccccc5cn4)CC3)c2n1` was tested, and the IC50 was 920 nM. Work on `CC(C)(C)c1ccc2nc(-c3ccc(C(=O)NCc4cccc(C(F)(F)F)c4)cc3)[nH]c2c1` yielded an IC50 of 730 nM. In the case of `CCNC(C)(C)CN(Cc1ccc(-c2ccc(C(F)(F)F)cc2)cc1)C(=O)Cn1c(SCc2ccc(F)cc2)nc(=O)c2c1CCC2`, the IC50 is reported as 990 nM. `CC(C)CNCc1cccc(-c2cccc(CNc3ccc4ncccc4c3)c2)c1` was tested, and the IC50 was 950 nM. In the case of `CCCc1cn2c3c(cc(C(=O)N[C@@H](Cc4ccccc4)[C@H](O)CNC4CCOCC4)cc13)N(CC)S(=O)(=O)CC2`, the IC50 is reported as 100 nM. With `Cc1ccc(O)cc1Nc1ccnc2ccc(-c3cccc(CN(C)C)c3)cc12` the IC50 was 510 nM. Molecule `COc1ccc(C(=O)CCC(=O)N(CCC2CCCN2C)Cc2ccc(-c3ccc(CNCCc4ccc(S(C)(=O)=O)cc4)cn3)cc2)cc1F` (configuration not stated) has an IC50 of 870 nM. For `Cc1cc(C(=O)CN2C(=O)NC3(CCOc4ccccc43)C2=O)c(C)n1Cc1ccc(F)cc1` (configuration not stated), the IC50 was 880 nM. In the case of `COc1cccc(CN2CCCN(Cc3cccc(NC(=O)c4ccc(Cl)c(Cl)c4)c3)CC2)c1`, the IC50 is reported as 1460 nM. Molecule `Cc1cccc2[nH]c(-c3cccc(-c4ccc(CNCCCN5CCCC5=O)cc4)c3)nc12` has an IC50 of 960 nM. `CCc1cc(Br)c2c(c1)C(NCCCNc1cc(=O)c3ccccc3[nH]1)CCN2` (configuration not stated) gave an IC50 of 850 nM. `CCCNC(=O)c1ccc(N2CCC(c3ccccc3C)CC2)nc1` gave an IC50 of 1520 nM. `CC(C)N1CCN(C(CN2CCN(CCCOc3cccc4ccccc34)CC2)c2ccc(F)cc2)CC1` (configuration not stated) gave an IC50 of 880 nM. `CN(C)Cc1ccc(-c2ccc(NC(=O)c3ccc4c(=O)n(Cc5ccccc5)cnc4c3)cc2)cc1` showed an IC50 of 650 nM. Molecule `Cc1cccc2[nH]c(-c3cccc(-c4ccc(NC(=O)c5ccc(=O)[nH]n5)cc4)c3)nc12` has an IC50 of 860 nM. With `Nc1c2ccccc2nc2cc([N+](=O)[O-])ccc12` the IC50 was 870 nM. Molecule `CCN1CCCC(Nc2ccnc3cc4ccccc4cc23)C1` (configuration not stated) has an IC50 of 100 nM. `COc1ccc2nccc([C@@H](O)CN3CCC(NC(=O)C(c4cccs4)N4CCN(c5ccc(F)cc5)CC4)CC3)c2c1` (some centres not stated) was tested, and the IC50 was 820 nM. In the case of `CCCc1nc2c(N3CC(NC(=O)/C=C/c4ccccc4)C3)cccc2n1C1CC1`, the IC50 is reported as 550 nM. `COc1ccc2ncc(F)c(CCN3CCC(CNC(=O)C(=O)c4c[nH]c5ccccc45)CC3)c2n1` gave an IC50 of 390 nM. `CN(CCCNCc1ccc2ccccc2c1)CCCNCc1ccc2ccccc2c1` was tested, and the IC50 was 390 nM. For `O=C(Nc1ccc(C(F)(F)F)cc1)c1ccc(S(=O)(=O)NC2CCN(Cc3ccccc3)C2)cc1` (configuration not stated), the IC50 was 620 nM. In the case of `CC(C)COc1ccc(Cl)cc1Cc1ccc(-c2nc3ccc(N4CCN(C)CC4)cc3[nH]2)o1`, the IC50 is reported as 950 nM. Work on `COCc1ccc(CN2CCC(C(=O)Nc3ccc(-c4nc5ccccc5[nH]4)cc3)CC2)o1` yielded an IC50 of 850 nM. Work on `FC(F)(F)c1ccc2nc(-c3cccc(-c4cccc(CNCc5cnn(-c6ccccc6)n5)c4)c3)[nH]c2c1` yielded an IC50 of 550 nM. For `CC(C)c1ncc(-c2ccncc2)c(C2CCC(CNC(=O)c3ccncc3)CC2)n1` (configuration not stated), the IC50 was 1350 nM. Molecule `CCCN1CCN(CCCCNc2c3ccccc3nc3ccccc23)CC1` has an IC50 of 410 nM. For `O=C(c1cc(C(=O)NCc2ccc(Cl)cc2)c(=O)n(Cc2ccc(Cl)cc2)c1)c1cc(Cl)ccc1O`, the IC50 was 1400 nM. `COc1ccc2nccc([C@@H](O)CN3CCC(NC(=O)c4ccc(Cl)c(OC)c4)CC3)c2c1` was tested, and the IC50 was 790 nM. Work on `O=C(/C=C/c1ccc(Cl)c(Cl)c1)NCCCCCN1CCCN(C(=O)Nc2ccc(Cl)c(Cl)c2)CC1` yielded an IC50 of 860 nM. In the case of `COc1ccc([N+](=O)[O-])cc1N(Cc1ccccc1-c1ccccc1)S(=O)(=O)c1ccc(C(F)(F)F)cc1`, the IC50 is reported as 780 nM. `O=C(Nc1cccnc1)c1ccc(-c2cc3ccncc3cc2OC2CCNCC2)s1` was tested, and the IC50 was 880 nM. Work on `N#Cc1ccc2c(c1)CCN(CCC1CCC(NC(=O)/C=C/c3c[nH]c4ccc(F)cc34)CC1)CC2` (configuration not stated) yielded an IC50 of 690 nM. In the case of `CCCCC(N)COc1cccc2c(-c3ccncc3)c(-c3cccc(NC(=O)Nc4ccccc4)c3)nn12` (configuration not stated), the IC50 is reported as 880 nM. With `O=C(c1cccs1)N(Cc1cccc(-c2ccc(CNC3CCCC3)cc2)c1)C1CCN(Cc2ccccc2)CC1` the IC50 was 1130 nM. `O=C(NC1CCC(N2CCN(c3cccc4[nH]ccc34)CC2)CC1)c1cc2cccnc2[nH]1` (configuration not stated) showed an IC50 of 490 nM. With `COc1cc2c(cc1OC)-c1cc(=Nc3c(C)cc(C)cc3C)n(C)c(=O)n1CC2` the IC50 was 1110 nM. `O=C(Nc1ccsc1)Nc1cccc(-c2ccc(-c3nc4ccc(C(F)(F)F)cc4[nH]3)cc2)c1` gave an IC50 of 350 nM. `Clc1ccccc1CN1CCC(NCc2cccc(-n3ccnc3)c2)CC1` was tested, and the IC50 was 790 nM. In the case of `Oc1cccc(Nc2nc(NCc3ccccc3)c3ccccc3n2)c1`, the IC50 is reported as 40 nM. `CCn1cc(-c2nc(-c3cc(OC)cc(OC)c3)no2)c(=O)c2ccccc21` was tested, and the IC50 was 340 nM. For `c1cc(CNC2Cc3ccccc3C2)cc(-c2cnc(N3CCNCC3)nc2)c1`, the IC50 was 940 nM. With `COc1ccc(-c2cnc3ccc(NC4CCC(O)CC4)nn23)cn1` (configuration not stated) the IC50 was 710 nM.
